# Where a name gives a salt, the structure may show the parent alone.
# Tested on: DGAT
# Assay: DGAT Phospholipid FlashPlate Assay
# Assay type: biochemical
# Settings: DGAT pellet, DAG-coated PL-FlashPlate, 14C-Pal-CoA, 37° C. for 1 hour; read-out: DGAT Inhibition Activity IC50
# Method: DGAT Phospholipid FlashPlate Assay
# Materials for the assay were: PL-FlashPlate: Phospholipid FlashPlates from PerkinElmer, catalog number SMP108; DAG (1,2-Dioleoyl-sn-glycerol) 10 mM suspended in water containing 0.1% Triton X-100; ^14C-Pal-CoA (palmitoyl coenzyme A, [palmitoyl-1-^14C]) from PerkinElmer, catalog number NEC-555 with a specific activity of 55 mCi/mmol; and DGAT pellet, with a protein concentration of 9.85 mg/ml.
# Aqueous buffers were prepared or purchased as follows: The coating buffer (CB) was purchased from PerkinElmer, catalog number SMP900A; the reaction buffer (RB) was 50 mM Tris-HCl, pH 7.5, 100 mM NaCl, 0.01% BSA in water; the washing buffer (WB) is 50 mM Tris-HCl, pH 7.5, 100 mM NaCl, 0.05% deoxycholic acid sodium salt in water; the dilution buffer (DB) was 50 mM Tris-HCl, pH 7.5, 100 mM NaCl, 1 mM EDTA, 0.2% Triton X-100 in water.
# 1,2-Dioleoyl-sn-glycerol (DAG, 10 mmoles) was diluted to 500 μM with coating buffer (CB). The diluted DAG solution was then added to 384-well PL-FlashPlates at 60 μl per well, and incubated at room temperature for 2 days. The coated plates were then washed twice with washing buffer (WB) before use. Test compounds were serial diluted to 2000, 666.7, 222.2, 74.1, 24.7, 8.2, 2.7 and 0.9 μM in 100% DMSO. Diluted compound were further diluted 10 fold with reaction buffer (RB). ^14C-Pal-CoA was diluted to 8.3 μM with RB. The DGAT pellet was diluted to 0.13 mg protein/ml with dilution buffer (DB) immediately before it was added to the PL-FlashPlates to start the reaction. 20 μl of the RB-diluted compounds (or 10% DMSO in RB for Total and Blank), 15 μl of RB diluted 14C-Pal-CoA and 15 μl of DB diluted DGAT pellet (DB without DGAT for Blanks) were transferred to each well of the PL-FlashPlates. The reaction mixtures were incubated at 37° C. for 1 hour. The reactions were stopped by washing 3 times with WB. Plates were sealed with Top-seal and read on a Topcount instrument.
# Calculation of IC50: The IC50 values for each compound were generated using an Excel template. The Topcount rpm readings of Total and Blank were used as 0% and 100% inhibition. The percent inhibition values of reactions in the presence of compounds were calculated, and plotted against compound concentrations. All data were fitted into a Dose Response One Site model (4 parameter logistic model) as the following: (A+((B−A)/(1+((x/C)^D)))), with A and B as the bottom and top of the curve (highest and lowest inhibition), respectively, and C as IC50 and D as Hill Coefficient of the compound.
row,IC50 [nM],Structure (SMILES)
1,826,"CCn1c(C(=O)Nc2ccc(N3CCN(C(=O)[C@H]4CC[C@H](C(=O)OCc5ccccc5)CC4)CC3)nc2)cc2c(OC)cccc21 [Example 27, trans-4-(4-{5-[(1-Ethyl-4-methoxy-1H-indole-2-carbonyl)-amino]-pyridin-2-yl}-piperazine-1-carbonyl)-cyclohexanecarboxylic acid benzyl ester]"
2,385,"CCn1c(C(=O)Nc2ccc(N3CCN(C(=O)[C@H]4CC[C@H](C(=O)O)CC4)CC3)nc2)cc2c(OC)cccc21 [Example 28, trans-4-(4-{5-[(1-Ethyl-4-methoxy-1H-indole-2-carbonyl)-amino]-pyridin-2-yl}-piperazine-1-carbonyl)-cyclohexanecarboxylic acid]"
3,980,"CCOc1cccc2c1cc(C(=O)Nc1ccc(N3CCN(C(=O)[C@H]4CC[C@H](C(=O)O)CC4)CC3)cc1)n2CC [Example 29, trans-4-(4-{4-[(4-Ethoxy-1-ethyl-1H-indole-2-carbonyl)-amino]-phenyl}-piperazine-1-carbonyl)-cyclohexanecarboxylic acid]"
4,824,"CCn1c(C(=O)Nc2ccc(C3CCN(C(=O)[C@H]4CC[C@H](C(=O)O)CC4)CC3)cc2)cc2c(C)cccc21 [Example 30, trans-4-(4-{4-[(1-Ethyl-4-methyl-1H-indole-2-carbonyl)-amino]-phenyl}-piperidine-1-carbonyl)-trans-1,4-cyclohexanecarboxylic acid]"
5,380,"CCOc1cccc2c1cc(C(=O)Nc1ccc(N3CCN(C(=O)[C@@H]4CCC[C@H]4C(=O)O)CC3)cc1)n2CC [Example 31, (1R,2R)-2-(4-{4-[(4-Ethoxy-1-ethyl-1H-indole-2-carbonyl)-amino]-phenyl}-piperazine-1-carbonyl)-cyclopentanecarboxylic acid]"
6,495,"CCOc1cccc2c1cc(C(=O)Nc1ccc(C3CCN(C(=O)[C@@H]4CCC[C@H]4C(=O)O)CC3)cc1)n2CC [Example 32, (1R,2R)-2-(4-{4-[(4-Ethoxy-1-ethyl-1,1-indole-2-carbonyl)-amino]-phenyl}-piperidine-1-carbonyl)-cyclopentanecarboxylic acid]"
7,662,"CCn1c(C(=O)Nc2ccc(N(C)CCOC)nc2)cc2cc(OC(F)(F)F)ccc21 [Example 33, 1-Ethyl-5-trifluoromethoxy-1H-indole-2-carboxylic acid {6-[(2-methoxy-ethyl)-methyl-amino]-pyridin-3-yl}-amide hydrochloride]"
8,683,"COCCN(C)c1ccc(NC(=O)c2cc3ccccc3s2)cn1 [Example 34, Benzo[b]thiophene-2-carboxylic acid {6-[(2-methoxy-ethyl)-methyl-amino]-pyridin-3-yl}-amide]"
9,351,"COCCN(C)c1ccc(NC(=O)c2sc3ccccc3c2C)cn1 [Example 35, 3-Methyl-benzo[b]thiophene-2-carboxylic acid {6-[(2-methoxy-ethyl)-methyl-amino]-pyridin-3-yl}-amide hydrochloride]"
10,856,"COCCN(C)c1ncc(NC(=O)c2sc3ccccc3c2C)cn1 [Example 36, 3-Methyl-benzo[b]thiophene-2-carboxylic acid {2-[(2-methoxy-ethyl)-methyl-amino]-pyrimidin-5-yl}-amide hydrochloride]"
11,425,"CCn1c(C(=O)Nc2ccc(N(C)CCOC)nc2)cc2ccccc21 [Example 37, 1-Ethyl-1H-indole-2-carboxylic acid {6-[(2-methoxy-ethyl)-methyl-amino]-pyridin-3-yl}-amide hydrochloride]"
12,102,"CCn1c(C(=O)Nc2ccc(N(C)CCOC)nc2)cc2c(OC)cccc21 [Example 38, 1-Ethyl-4-methoxy-1H-indole-2-carboxylic acid {6-[(2-methoxy-ethyl)-methyl-amino]-pyridin-3-yl}-amide hydrochloride]"
13,312,"CCn1c(C(=O)Nc2ccc(N(C)CCOC)nc2)cc2cc(OC)ccc21 [Example 39, 1-Ethyl-5-methoxy-1H-indole-2-carboxylic acid {6-[(2-methoxy-ethyl)-methyl-amino]pyridin-3-yl}-amide hydrochloride]"
14,797,"CCn1c(C(=O)Nc2ccc(N(C)CCOC)nc2)cc2cc(OCc3ccccc3)ccc21 [Example 40, 5-Benzyloxy-1-ethyl-1H-indole-2-carboxylic acid {6-[(2-methoxy-ethyl)-methyl-amino]-pyridin-3-yl}-amide]"
15,937,"CCCn1c(C(=O)Nc2ccc(N(C)CCOC)nc2)cc2ccccc21 [Example 41, 1-Propyl-1H-indole-2-carboxylic acid {6-[(2-methoxy-ethyl)-methyl-amino]-pyridin-3-yl}-amide hydrochloride]"
16,750,"COCCN(C)c1ccc(NC(=O)c2cc3cc(Cl)ccc3n2C)cn1 [Example 42, 5-Chloro-1-methyl-1H-indole-2-carboxylic acid {6-[(2-methoxy-ethyl)-methyl-amino]-pyridin-3-yl}-amide hydrochloride]"
17,161,"CCn1c(C(=O)Nc2ccc(N(C)CCOC)nc2)cc2cc(Cl)ccc21 [Example 43, 5-Chloro-1-ethyl-4H-indole-2-carboxylic acid {6-[(2-methoxy-ethyl)-methyl-amino]-pyridin-3-yl}-amide hydrochloride]"
18,489,"CCOc1cccc2c1cc(C(=O)Nc1ccc(N3CCN(C(=O)CC(C)(C)C(=O)O)CC3)cc1)n2CC [Example 44, 4-(4-{4-[(4-Ethoxy-1-ethyl-1H-indole-2-carbonyl)-amino]-phenyl}-piperazin-1-yl)-2,2-dimethyl-4-oxo-butyric acid]"
19,668,"CCn1c(C(=O)Nc2ccc(N(C)C3CC3)nc2)cc2cc(Cl)ccc21 [Example 45, 5-Chloro-1-ethyl-1H-indole-2-carboxylic acid [6-(cyclopropyl-methyl-amino)-pyridin-3-yl]-amide]"
20,303,"CCOC(=O)N1CC[C@H](Nc2ccc(NC(=O)c3cc4cc(Br)ccc4s3)cn2)C1 [Example 46, (S)-3-{5-[(5-Bromo-benzo[b]thiophene-2-carbonyl)-amino]pyridin-2-ylamino}-pyrrolidine-1-carboxylic acid ethyl ester hydrochloride]"
21,280,"CCOC(=O)N1CC[C@H](Nc2ccc(NC(=O)c3cc4c(Cl)cccc4s3)cn2)C1 [Example 47, (S)-3-{5-[(4-Chloro-benzo[b]thiophene-2-carbonyl)-amino]pyridin-2-ylamino}-pyrrolidine-1-carboxylic acid ethyl ester hydrochloride]"
22,396,"CCOC(=O)N1CC[C@H](Nc2ccc(NC(=O)c3cc4ccccc4s3)cn2)C1 [Example 48, (S)-3-{5-[(Benzo[b]thiophene-2-carbonyl)-amino]-pyridin-2-ylamino}-pyrrolidine-1-carboxylic acid ethyl ester hydrochloride]"
23,594,"CCOC(=O)N1CC[C@H](Nc2ccc(NC(=O)c3cc4cc(C(F)(F)F)ccc4s3)cn2)C1 [Example 49, (S)-3-{5-[(5-Trifluoromethyl-benzo[b]thiophene-2-carbonyl)-amino]-pyridin-2 ylamino}-pyrrolidine-1-carboxylic acid ethyl ester hydrochloride]"
24,929,"CCOC(=O)N1CC[C@H](Nc2ccc(NC(=O)c3cc4cc(Br)ccc4n3CC)cn2)C1 [Example 50, (S)-3-{5-[(5-Bromo-1-ethyl-1H-indole-2-carbonyl)-amino]-pyridin-2-ylamino}-pyrrolidine-1-carboxylic acid ethyl ester hydrochloride]"
25,343,"CCOC(=O)N1CC[C@H](Nc2ccc(NC(=O)c3cc4cc(OC)ccc4n3CC)cn2)C1 [Example 51, (S)-3-{5-[(1-Ethyl-5-methoxy-1H-indole-2-carbonyl)-amino]-pyridin-2-ylamino}-pyrrolidine-1-carboxylic acid ethyl ester hydrochloride]"
26,229,"CCOC(=O)N1CC[C@H](Nc2ccc(NC(=O)c3cc4c(OC)cc(OC)cc4n3CC)cn2)C1 [Example 52, (S)-3-{5-[(1-Ethyl-4,6-dimethoxy-1H-indole-2-carbonyl)-amino]-pyridin-2-ylamino}pyrrolidine-1-carboxylic acid ethyl ester]"
